Data from patent US20060263870A1, “Hydrocarbon processing method and hydrocarbon processing system” (NIHON UNIVERSITY, priority 2005, published 2006).

Assays:
Type in all cases: cell-based
[1] = tested on: Rhodococcus rhodochrous S-2; assay: Treatment of various hydrocarbons: growth and localization of S-2 in organic solvent/IB medium bilayer culture; details: hydrocarbon 5% (v/v) in IB medium, 28° C., 110 rpm, third day of culturing
Procedure: (§1) IB liquid medium was prepared as shown below.
(§2) As n-alkanes, n-hexane (C6), n-octane (C8), n-nonane (C9), n-decane (C10), n-undecane (C11), n-dodecane (C12), n-tridecane (C13), n-tetradecane (C14), n-pentadecane (C15), n-hexadecane (C16), n-heptadecane (C17), and n-octadecane (C18) were used.
(§3) As test strains, Rhodococcus erythropolis PR-4 and Rhodococcus rhodochrous S-2 were used.
(§4) On the third day after the start of culturing, the growth status of the test bacteria and sites where the test bacteria had localized were observed. When the test bacteria were present in the organic solvent, they were labeled “inside” and when they were present on the surface of the organic solvent, they were labeled “surface.” The results are shown in Table 1.

[2] = tested on: Rhodococcus erythropolis PR-4; assay: Treatment of various hydrocarbons: growth and localization of PR-4 in organic solvent/IB medium bilayer culture; details: hydrocarbon 5% (v/v) in IB medium, 28° C., 110 rpm, third day of culturing
Procedure: as §1, §2, §3, §4

[3] = tested on: Rhodococcus erythropolis PR-4; assay: Investigation of Rhodococcus erythropolis PR-4 adaptation (two-stage culture with different hydrocarbons); parameters: key: ±: growth is shown at interface of hydrocarbon and IB liquid culture medium; +: growth is shown in hydrocarbon; details: pristane (C19) into dodecane (C12): PR-4 first cultured 3 days with pristane, then with dodecane 5% (v/v); third day

Row | SMILES | S-2 growth [1] | PR-4 growth [2] | growth [3]
1 | CCCCCCCCCCCCCCCC [n-hexadecane] | ± | + | 
2 | CCCCCC [n-hexane] | − | − | 
3 | CCCCCCCCCCCCCC [n-tetradecane] | ± | + | 
4 | CC(C)CCCC(C)CCCC(C)CCCCC(C)CCCC(C)CCCC(C)C (stereo not drawn) [n-squalane, squalane] | ± | + | 
5 | CCCCCCCCCCCC [n-dodecane] | − | ± | +
6 | CCCCCCCC [n-octane] | − | − | 
7 | CCCCCCCCCC [n-decane] | − | ± | 
